Assay results taken from PMC4490784, “Compensatory induction of MYC expression by sustained CDK9 inhibition via a BRD4-dependent mechanism” (eLife, 2015).

Key:
Assay in all cases: KINOMEscan binding assay
SRMS = molecular target: T1, SRMS (Homo sapiens, UniProt Q9H3Y6); conditions: read-out: % Retention on Solid Support
T1 construct: purchased DiscoveRx KINOMEscan
Method in brief: (§1)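 We profiled i-CDK9 by active-site-directed competitive binding, testing 1 µM and 10 µM against over 400 kinases.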

TXK = molecular target: T2, TXK (Homo sapiens, UniProt P42681); conditions: read-out: % Retention on Solid Support
T2 construct: purchased DiscoveRx KINOMEscan
Method in brief: as §1

CDKL1 = molecular target: T3, CDKL1 (Homo sapiens, UniProt Q00532); conditions: 1 µM i-CDK9; read-out: % Retention on Solid Support
T3 construct: purchased DiscoveRx KINOMEscan
Method in brief: as §1

PLK3 = molecular target: T4, PLK3 (Homo sapiens, UniProt Q9H4B4); conditions: read-out: % Retention on Solid Support
T4 construct: purchased DiscoveRx KINOMEscan
T4 sequence (Q9H4B4 whole entry): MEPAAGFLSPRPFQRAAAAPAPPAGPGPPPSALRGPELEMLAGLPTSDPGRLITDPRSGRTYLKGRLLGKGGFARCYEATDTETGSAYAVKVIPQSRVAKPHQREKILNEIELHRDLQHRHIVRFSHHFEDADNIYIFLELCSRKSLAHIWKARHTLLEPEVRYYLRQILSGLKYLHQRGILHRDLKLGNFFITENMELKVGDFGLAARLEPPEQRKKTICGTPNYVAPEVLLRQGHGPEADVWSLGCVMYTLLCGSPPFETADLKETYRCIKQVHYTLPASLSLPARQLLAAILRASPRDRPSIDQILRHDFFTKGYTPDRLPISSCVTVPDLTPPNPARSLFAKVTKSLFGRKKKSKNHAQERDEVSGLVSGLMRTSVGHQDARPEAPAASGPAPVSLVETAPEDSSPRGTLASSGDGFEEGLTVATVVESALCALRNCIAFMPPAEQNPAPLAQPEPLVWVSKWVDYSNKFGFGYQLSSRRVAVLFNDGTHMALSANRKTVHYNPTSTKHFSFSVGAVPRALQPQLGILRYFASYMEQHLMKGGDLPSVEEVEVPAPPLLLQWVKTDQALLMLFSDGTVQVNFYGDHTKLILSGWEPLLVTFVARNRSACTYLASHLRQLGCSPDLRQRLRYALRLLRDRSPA
Method in brief: as §1

EGFR(E746-A750del) = molecular target: T5, EGFR(E746-A750del) (Homo sapiens, UniProt P00533, DEL746-750)
T5 construct: purchased DiscoveRx KINOMEscan
Method in brief: as §1

LOK = molecular target: T6, LOK (Homo sapiens, UniProt O94804)
T6 construct: purchased DiscoveRx KINOMEscan
T6 sequence (O94804 whole entry): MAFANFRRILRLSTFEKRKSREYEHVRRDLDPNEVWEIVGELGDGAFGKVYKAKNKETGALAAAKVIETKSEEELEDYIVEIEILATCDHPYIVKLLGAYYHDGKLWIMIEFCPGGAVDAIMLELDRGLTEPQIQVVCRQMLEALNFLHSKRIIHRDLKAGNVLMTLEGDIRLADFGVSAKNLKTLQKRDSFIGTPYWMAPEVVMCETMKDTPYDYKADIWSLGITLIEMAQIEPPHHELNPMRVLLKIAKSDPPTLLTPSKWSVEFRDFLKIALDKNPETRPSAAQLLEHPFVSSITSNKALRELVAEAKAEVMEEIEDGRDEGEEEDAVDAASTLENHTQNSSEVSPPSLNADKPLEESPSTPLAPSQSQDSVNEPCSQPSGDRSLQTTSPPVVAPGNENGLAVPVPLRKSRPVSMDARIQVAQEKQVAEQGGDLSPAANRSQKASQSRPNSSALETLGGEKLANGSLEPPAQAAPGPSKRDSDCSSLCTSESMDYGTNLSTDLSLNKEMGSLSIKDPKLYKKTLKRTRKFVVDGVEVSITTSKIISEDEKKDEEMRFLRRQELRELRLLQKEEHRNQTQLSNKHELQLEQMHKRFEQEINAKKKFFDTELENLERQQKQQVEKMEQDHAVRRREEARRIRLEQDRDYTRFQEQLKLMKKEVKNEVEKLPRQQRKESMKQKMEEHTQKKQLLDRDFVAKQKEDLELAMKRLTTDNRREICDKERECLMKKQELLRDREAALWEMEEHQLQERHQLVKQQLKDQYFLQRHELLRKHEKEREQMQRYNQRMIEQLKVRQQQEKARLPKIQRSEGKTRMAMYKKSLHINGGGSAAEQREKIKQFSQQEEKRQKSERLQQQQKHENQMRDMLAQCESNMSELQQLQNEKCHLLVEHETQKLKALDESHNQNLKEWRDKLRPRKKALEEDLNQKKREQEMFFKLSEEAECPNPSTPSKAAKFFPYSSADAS
Method in brief: as §1

LYN = molecular target: T7, LYN (Homo sapiens, UniProt P07948); conditions: read-out: % Retention on Solid Support
T7 construct: purchased DiscoveRx KINOMEscan
Method in brief: as §1

[1] = molecular target: T8, RSK1(Kin.Dom.1-N-terminal) (Homo sapiens, UniProt Q15418); conditions: read-out: % Retention on Solid Support
T8 construct: RSK1(Kin.Dom.1-N-terminal); purchased DiscoveRx KINOMEscan
Method in brief: as §1

NEK2 = molecular target: T9, NEK2 (Homo sapiens, UniProt P51955); conditions: read-out: % Retention on Solid Support
T9 construct: purchased DiscoveRx KINOMEscan
Method in brief: as §1

FRK = molecular target: T10, FRK (Homo sapiens, UniProt P42685); conditions: read-out: % Retention on Solid Support
T10 construct: purchased DiscoveRx KINOMEscan
Method in brief: as §1

PKN2 = molecular target: T11, PKN2 (Homo sapiens, UniProt Q16513); conditions: read-out: % Retention on Solid Support
T11 construct: purchased DiscoveRx KINOMEscan
Method in brief: as §1

CIT = molecular target: T12, CIT (Homo sapiens, UniProt O14578)
T12 construct: purchased DiscoveRx KINOMEscan
Method in brief: as §1

RET(M918T) = molecular target: T13, RET(M918T) (Homo sapiens, UniProt P07949, M918T); conditions: read-out: % Retention on Solid Support
T13 construct: purchased DiscoveRx KINOMEscan
Method in brief: as §1

IRAK1 = molecular target: T14, IRAK1 (Homo sapiens, UniProt P51617); conditions: read-out: % Retention on Solid Support
T14 construct: purchased DiscoveRx KINOMEscan
Method in brief: as §1

HIPK4 = molecular target: T15, HIPK4 (Homo sapiens, UniProt Q8NE63); conditions: read-out: % Retention on Solid Support
T15 construct: purchased DiscoveRx KINOMEscan
Method in brief: as §1

AURKB = molecular target: T16, AURKB (Homo sapiens, UniProt Q96GD4); conditions: read-out: % Retention on Solid Support
T16 construct: purchased DiscoveRx KINOMEscan
Method in brief: as §1

PAK7 = molecular target: T17, PAK7 (Homo sapiens, UniProt Q9P286); conditions: read-out: % Retention on Solid Support
T17 construct: purchased DiscoveRx KINOMEscan
T17 sequence (Q9P286 whole entry): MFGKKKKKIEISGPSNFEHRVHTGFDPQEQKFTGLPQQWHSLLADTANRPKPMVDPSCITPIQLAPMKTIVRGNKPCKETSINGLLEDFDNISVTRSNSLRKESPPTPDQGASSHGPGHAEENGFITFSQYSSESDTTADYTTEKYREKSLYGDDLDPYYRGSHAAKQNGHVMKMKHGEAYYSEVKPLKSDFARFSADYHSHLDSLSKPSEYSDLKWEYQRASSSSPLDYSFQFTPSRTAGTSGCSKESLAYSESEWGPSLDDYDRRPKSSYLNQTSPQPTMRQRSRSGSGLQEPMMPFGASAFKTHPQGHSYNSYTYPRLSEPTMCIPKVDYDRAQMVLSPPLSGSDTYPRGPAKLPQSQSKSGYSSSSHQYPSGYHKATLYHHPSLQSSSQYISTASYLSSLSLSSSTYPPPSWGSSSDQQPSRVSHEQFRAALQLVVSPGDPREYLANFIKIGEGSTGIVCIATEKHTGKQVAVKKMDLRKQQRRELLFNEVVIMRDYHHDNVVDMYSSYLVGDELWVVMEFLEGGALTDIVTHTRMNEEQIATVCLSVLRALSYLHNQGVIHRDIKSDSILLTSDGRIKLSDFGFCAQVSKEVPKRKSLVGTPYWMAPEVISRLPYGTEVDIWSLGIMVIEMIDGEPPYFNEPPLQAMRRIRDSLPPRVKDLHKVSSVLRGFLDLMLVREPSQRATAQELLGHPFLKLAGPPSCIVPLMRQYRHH
Method in brief: as §1

MEK4 = molecular target: T18, MEK4 (Homo sapiens, UniProt P45985); conditions: read-out: % Retention on Solid Support
T18 construct: purchased DiscoveRx KINOMEscan
Method in brief: as §1

PIK3CA(M1043I) = molecular target: T19, PIK3CA(M1043I) (Homo sapiens, UniProt P42336, M1043I); conditions: read-out: % Retention on Solid Support
T19 construct: purchased DiscoveRx KINOMEscan
Method in brief: as §1

PDGFRA = molecular target: T20, PDGFRA (Homo sapiens, UniProt P16234); conditions: read-out: % Retention on Solid Support
T20 construct: purchased DiscoveRx KINOMEscan
Method in brief: as §1

ASK2 = molecular target: T21, ASK2 (Homo sapiens, UniProt O95382); conditions: read-out: % Retention on Solid Support
T21 construct: purchased DiscoveRx KINOMEscan
T21 sequence (O95382 whole entry): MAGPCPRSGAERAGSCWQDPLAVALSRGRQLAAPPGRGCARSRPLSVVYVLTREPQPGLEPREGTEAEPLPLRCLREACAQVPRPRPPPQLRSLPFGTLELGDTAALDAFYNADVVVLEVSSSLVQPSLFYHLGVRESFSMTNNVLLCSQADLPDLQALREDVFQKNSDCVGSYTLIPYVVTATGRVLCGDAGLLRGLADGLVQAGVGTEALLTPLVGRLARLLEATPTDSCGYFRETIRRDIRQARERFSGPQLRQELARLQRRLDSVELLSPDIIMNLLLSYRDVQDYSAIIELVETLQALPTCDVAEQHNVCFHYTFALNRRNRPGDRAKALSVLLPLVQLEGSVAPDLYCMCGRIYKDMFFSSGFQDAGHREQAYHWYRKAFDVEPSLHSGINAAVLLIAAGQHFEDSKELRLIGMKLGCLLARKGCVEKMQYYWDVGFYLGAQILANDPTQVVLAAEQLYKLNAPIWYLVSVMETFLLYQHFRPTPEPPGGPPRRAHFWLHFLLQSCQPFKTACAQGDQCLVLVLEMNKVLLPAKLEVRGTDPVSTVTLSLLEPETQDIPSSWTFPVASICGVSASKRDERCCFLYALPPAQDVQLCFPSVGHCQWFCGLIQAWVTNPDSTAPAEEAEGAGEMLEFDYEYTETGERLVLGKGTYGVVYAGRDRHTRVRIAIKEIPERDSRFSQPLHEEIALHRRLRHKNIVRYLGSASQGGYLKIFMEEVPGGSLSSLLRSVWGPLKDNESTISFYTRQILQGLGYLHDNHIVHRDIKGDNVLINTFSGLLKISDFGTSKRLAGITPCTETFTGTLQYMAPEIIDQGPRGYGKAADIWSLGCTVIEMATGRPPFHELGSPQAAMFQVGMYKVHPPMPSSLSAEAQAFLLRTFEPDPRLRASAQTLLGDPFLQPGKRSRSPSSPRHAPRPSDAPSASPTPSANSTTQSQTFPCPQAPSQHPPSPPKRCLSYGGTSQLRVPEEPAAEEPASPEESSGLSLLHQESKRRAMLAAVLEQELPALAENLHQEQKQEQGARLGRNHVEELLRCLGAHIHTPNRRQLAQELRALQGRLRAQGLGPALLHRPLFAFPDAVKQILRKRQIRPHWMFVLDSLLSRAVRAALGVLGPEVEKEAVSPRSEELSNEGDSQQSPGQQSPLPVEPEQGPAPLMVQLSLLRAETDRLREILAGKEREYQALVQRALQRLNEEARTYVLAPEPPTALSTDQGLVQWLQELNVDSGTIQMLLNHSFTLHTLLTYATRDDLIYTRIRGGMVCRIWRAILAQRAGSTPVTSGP
Method in brief: as §1

HIPK3 = molecular target: T22, HIPK3 (Homo sapiens, UniProt Q9H422); conditions: read-out: % Retention on Solid Support
T22 construct: purchased DiscoveRx KINOMEscan
Method in brief: as §1

PRKD2 = molecular target: T23, PRKD2 (Homo sapiens, UniProt Q9BZL6); conditions: read-out: % Retention on Solid Support
T23 construct: purchased DiscoveRx KINOMEscan
Method in brief: as §1

PRKD1 = molecular target: T24, PRKD1 (Homo sapiens, UniProt Q15139); conditions: read-out: % Retention on Solid Support
T24 construct: purchased DiscoveRx KINOMEscan
T24 sequence (Q15139 whole entry): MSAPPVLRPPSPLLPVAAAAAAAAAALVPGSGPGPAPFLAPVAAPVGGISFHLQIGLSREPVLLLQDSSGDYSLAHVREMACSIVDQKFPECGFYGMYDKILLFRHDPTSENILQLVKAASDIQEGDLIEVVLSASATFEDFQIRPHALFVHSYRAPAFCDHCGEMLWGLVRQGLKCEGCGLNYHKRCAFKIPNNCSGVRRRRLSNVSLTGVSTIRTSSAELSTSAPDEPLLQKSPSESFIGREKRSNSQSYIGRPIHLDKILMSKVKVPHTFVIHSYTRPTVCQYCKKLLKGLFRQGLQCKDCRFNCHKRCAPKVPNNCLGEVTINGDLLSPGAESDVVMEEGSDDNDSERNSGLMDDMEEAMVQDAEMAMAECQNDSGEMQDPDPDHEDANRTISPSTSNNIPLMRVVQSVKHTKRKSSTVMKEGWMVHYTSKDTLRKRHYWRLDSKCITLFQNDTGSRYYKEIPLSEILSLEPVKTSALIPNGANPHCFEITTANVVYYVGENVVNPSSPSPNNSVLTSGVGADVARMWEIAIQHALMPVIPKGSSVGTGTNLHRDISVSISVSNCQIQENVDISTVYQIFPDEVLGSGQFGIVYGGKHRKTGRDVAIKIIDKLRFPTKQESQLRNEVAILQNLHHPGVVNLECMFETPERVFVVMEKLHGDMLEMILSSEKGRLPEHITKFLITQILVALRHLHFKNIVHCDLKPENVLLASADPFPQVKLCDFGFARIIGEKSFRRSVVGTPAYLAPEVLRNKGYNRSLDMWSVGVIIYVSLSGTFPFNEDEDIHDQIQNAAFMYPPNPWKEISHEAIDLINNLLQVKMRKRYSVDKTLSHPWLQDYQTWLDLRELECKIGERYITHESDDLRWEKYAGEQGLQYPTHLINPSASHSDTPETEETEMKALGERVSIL
Method in brief: as §1

CSNK1E = molecular target: T25, CSNK1E (Homo sapiens, UniProt P49674); conditions: read-out: % Retention on Solid Support
T25 construct: purchased DiscoveRx KINOMEscan
Method in brief: as §1

[2] = molecular target: T26, ABL1(Y253F)-non phosphorylated (Homo sapiens, UniProt P00519, Y253F); conditions: read-out: % Retention on Solid Support
T26 construct: purchased DiscoveRx KINOMEscan
Method in brief: as §1

[3] = molecular target: T27, RSK3(Kin.Dom.2-C-terminal) (Homo sapiens, UniProt Q15349); conditions: read-out: % Retention on Solid Support
T27 construct: RSK3(Kin.Dom.2-C-terminal); purchased DiscoveRx KINOMEscan
Method in brief: as §1

MRCKB = molecular target: T28, MRCKB (Homo sapiens, UniProt Q9Y5S2); conditions: read-out: % Retention on Solid Support
T28 construct: purchased DiscoveRx KINOMEscan
Method in brief: as §1

T1 sequence (Q9H3Y6 whole entry): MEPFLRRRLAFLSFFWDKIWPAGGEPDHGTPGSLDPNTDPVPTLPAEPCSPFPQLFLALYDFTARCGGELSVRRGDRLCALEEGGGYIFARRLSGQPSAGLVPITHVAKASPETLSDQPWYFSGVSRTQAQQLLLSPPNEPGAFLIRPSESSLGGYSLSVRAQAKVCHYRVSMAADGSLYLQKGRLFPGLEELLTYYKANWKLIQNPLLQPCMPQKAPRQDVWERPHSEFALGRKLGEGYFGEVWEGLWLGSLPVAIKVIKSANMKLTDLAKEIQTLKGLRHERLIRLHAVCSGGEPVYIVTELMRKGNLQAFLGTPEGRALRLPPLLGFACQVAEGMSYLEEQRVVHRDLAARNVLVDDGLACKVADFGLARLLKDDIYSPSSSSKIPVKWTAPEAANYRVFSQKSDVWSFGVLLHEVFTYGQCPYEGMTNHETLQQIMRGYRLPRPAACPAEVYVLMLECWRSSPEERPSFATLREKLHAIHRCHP

## N[C@H]1CC[C@H](Nc2cc(-c3cccc(NCc4cccc(F)c4)n3)c(Cl)cn2)CC1 [i-CDK9, N2′-(trans-4-aminocyclohexyl)-5′-chloro-N6-(3-fluorobenzyl)-2,4′-bipyridine-2′,6-diamine]
SRMS; 1 µM i-CDK9
  remaining binding at 1 µM: 99%
SRMS; 10 µM i-CDK9
  remaining binding at 10 µM: 80%
TXK; 1 µM i-CDK9
  remaining binding at 1 µM: 100%
TXK; 10 µM i-CDK9
  remaining binding at 10 µM: 100%
CDKL1
  remaining binding at 1 µM: 100%
PLK3; 1 µM i-CDK9
  remaining binding at 1 µM: 96%
PLK3; 10 µM i-CDK9
  remaining binding at 10 µM: 89%
EGFR(E746-A750del); 1 µM i-CDK9
  % Retention on Solid Support: 0%
EGFR(E746-A750del); 10 µM i-CDK9
  % Retention on Solid Support: 78%
LOK; 1 µM i-CDK9
  % Retention on Solid Support: 89%
LOK; 10 µM i-CDK9
  % Retention on Solid Support: 100%
LYN; 1 µM i-CDK9
  remaining binding at 1 µM: 100%
LYN; 10 µM i-CDK9
  remaining binding at 10 µM: 81%
[1]; 1 µM i-CDK9
  remaining binding at 1 µM: 100%
[1]; 10 µM i-CDK9
  remaining binding at 10 µM: 82%
NEK2; 1 µM i-CDK9
  remaining binding at 1 µM: 77%
NEK2; 10 µM i-CDK9
  remaining binding at 10 µM: 100%
FRK; 1 µM i-CDK9
  remaining binding at 1 µM: 72%
FRK; 10 µM i-CDK9
  remaining binding at 10 µM: 100%
PKN2; 1 µM i-CDK9
  remaining binding at 1 µM: 52%
PKN2; 10 µM i-CDK9
  remaining binding at 10 µM: 93%
CIT; 1 µM i-CDK9
  % Retention on Solid Support: 60%
CIT; 10 µM i-CDK9
  % Retention on Solid Support: 8.2%
RET(M918T); 1 µM i-CDK9
  remaining binding at 1 µM: 81%
RET(M918T); 10 µM i-CDK9
  remaining binding at 10 µM: 73%
IRAK1; 1 µM i-CDK9
  remaining binding at 1 µM: 100%
IRAK1; 10 µM i-CDK9
  remaining binding at 10 µM: 73%
HIPK4; 1 µM i-CDK9
  remaining binding at 1 µM: 40%
HIPK4; 10 µM i-CDK9
  remaining binding at 10 µM: 3.2%
AURKB; 1 µM i-CDK9
  remaining binding at 1 µM: 72%
AURKB; 10 µM i-CDK9
  remaining binding at 10 µM: 91%
PAK7; 1 µM i-CDK9
  remaining binding at 1 µM: 75%
PAK7; 10 µM i-CDK9
  remaining binding at 10 µM: 81%
MEK4; 1 µM i-CDK9
  remaining binding at 1 µM: 39%
MEK4; 10 µM i-CDK9
  remaining binding at 10 µM: 97%
PIK3CA(M1043I); 1 µM i-CDK9
  remaining binding at 1 µM: 100%
PIK3CA(M1043I); 10 µM i-CDK9
  remaining binding at 10 µM: 75%
PDGFRA; 1 µM i-CDK9
  remaining binding at 1 µM: 59%
PDGFRA; 10 µM i-CDK9
  remaining binding at 10 µM: 88%
ASK2; 1 µM i-CDK9
  remaining binding at 1 µM: 100%
ASK2; 10 µM i-CDK9
  remaining binding at 10 µM: 92%
HIPK3; 1 µM i-CDK9
  remaining binding at 1 µM: 100%
HIPK3; 10 µM i-CDK9
  remaining binding at 10 µM: 89%
PRKD2; 1 µM i-CDK9
  remaining binding at 1 µM: 88%
PRKD2; 10 µM i-CDK9
  remaining binding at 10 µM: 47%
PRKD1; 1 µM i-CDK9
  remaining binding at 1 µM: 55%
PRKD1; 10 µM i-CDK9
  remaining binding at 10 µM: 20%
CSNK1E; 1 µM i-CDK9
  remaining binding at 1 µM: 100%
CSNK1E; 10 µM i-CDK9
  remaining binding at 10 µM: 45%
[2]; 1 µM i-CDK9
  remaining binding at 1 µM: 84%
[2]; 10 µM i-CDK9
  remaining binding at 10 µM: 100%
[3]; 1 µM i-CDK9
  remaining binding at 1 µM: 73%
[3]; 10 µM i-CDK9
  remaining binding at 10 µM: 100%
MRCKB; 1 µM i-CDK9
  remaining binding at 1 µM: 95%
MRCKB; 10 µM i-CDK9
  remaining binding at 10 µM: 100%
